Data on 18 compounds can be found in patent publication US20250154123A1, “COOLING COMPOUNDS AND COMPOSITIONS” (V. MANE FILS, priority 2022, published 2025).

The target in the test is T1, hTRPM8 (Homo sapiens, UniProt Q7Z2W7).
T1 construct: expressed in transfected cells; host or cells: CHO-KJ cells [sic]
T1 sequence (Q7Z2W7 whole entry): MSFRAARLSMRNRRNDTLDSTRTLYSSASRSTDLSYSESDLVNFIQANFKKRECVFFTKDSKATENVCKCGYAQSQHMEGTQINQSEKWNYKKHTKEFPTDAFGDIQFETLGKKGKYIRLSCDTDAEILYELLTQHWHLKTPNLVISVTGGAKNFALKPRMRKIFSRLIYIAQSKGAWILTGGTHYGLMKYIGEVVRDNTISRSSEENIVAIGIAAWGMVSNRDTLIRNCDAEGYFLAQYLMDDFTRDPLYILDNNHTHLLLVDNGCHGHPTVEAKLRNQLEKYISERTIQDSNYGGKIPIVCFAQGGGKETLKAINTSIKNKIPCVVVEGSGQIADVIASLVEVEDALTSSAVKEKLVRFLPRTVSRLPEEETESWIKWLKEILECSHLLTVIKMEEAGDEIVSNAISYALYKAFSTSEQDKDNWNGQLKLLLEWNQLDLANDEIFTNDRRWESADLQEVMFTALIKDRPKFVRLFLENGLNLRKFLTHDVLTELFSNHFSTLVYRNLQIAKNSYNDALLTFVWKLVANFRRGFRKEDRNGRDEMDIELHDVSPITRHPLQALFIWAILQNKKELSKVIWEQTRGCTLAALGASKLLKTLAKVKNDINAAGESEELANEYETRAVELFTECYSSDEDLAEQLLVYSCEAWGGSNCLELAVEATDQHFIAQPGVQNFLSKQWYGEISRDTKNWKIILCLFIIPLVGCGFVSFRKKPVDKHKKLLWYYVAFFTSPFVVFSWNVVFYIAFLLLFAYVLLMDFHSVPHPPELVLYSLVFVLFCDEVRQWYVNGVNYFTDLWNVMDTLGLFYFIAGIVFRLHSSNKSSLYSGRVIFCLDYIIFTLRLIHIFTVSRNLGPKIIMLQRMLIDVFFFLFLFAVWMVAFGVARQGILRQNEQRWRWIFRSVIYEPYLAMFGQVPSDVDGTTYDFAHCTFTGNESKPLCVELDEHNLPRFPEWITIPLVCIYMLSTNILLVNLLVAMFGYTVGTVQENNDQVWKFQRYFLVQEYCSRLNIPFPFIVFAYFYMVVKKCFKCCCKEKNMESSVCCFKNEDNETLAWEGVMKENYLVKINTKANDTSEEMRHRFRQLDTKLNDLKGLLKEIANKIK
Description: Secondary in vitro screening on hTRPM8 at 5 μM versus WS-3. It counts as cell-based. To be noted: WS3 as reference compound. The protocol:
The compounds were evaluated in vitro on CHO-KJ cells expressing the gene encoding the hTRPM8 ion channel (Table 1). Channel activation is determined by fluorometric measurement of […] calcium using FLUO-8. The activity of the compounds was measured relative to icilin (known hTRPM8 agonist).
The compounds 1 to 40 were tested on hTRPM8 at 5 μM using WS3 as the reference compound (Table 2).
Consider `CC(C)C1CCC(C)(C)CC1(CO)CO` (single isomer, unassigned) [Compound 30, (2-isopropyl-5,5-dimethylcyclohexane-1,1-diyl)dimethanol], for which the activation at 5 µM turned out to be 71%.

With `CC(C)[C@@H]1CC[C@@H](C)CC12COC1(C[C@H](C)CC[C@H]1C(C)C)OC2` (stereo partly drawn) [Compound 7, (1S,4R,10S,13R)-1,10-diisopropyl-4,13-dimethyl-7,16-dioxadispiro [5.2.5^90.2^6]hexadecane], the activation at 5 µM was 0%.

Regarding `CC(C)[C@@H]1CC[C@@H](C)CC1(C=O)C=O` [Compound 8, (2S,5R)-2-isopropyl-5-methylcyclohexane-1,1-dicarbaldehyde], the activation at 5 µM was 6%.

`CC(=O)OCC1(COC(C)=O)C[C@H](C)CC[C@H]1C(C)C` [Compound 9, ((2S,5R)-2-isopropyl-5-methylcyclohexane-1,1-diyl)bis(methylene) diacetate]: the activation at 5 µM was 0%.

For `CC1CC(C)(C)CC(CO)(CO)C1` (stereo not drawn) [Compound 10, (3,3,5-trimethylcyclohexane-1,1-diyl)dimethanol], the activation at 5 µM was determined as 10%.

As for `CC1CC(C)(C)CC2(COC(C)OC2)C1` (stereo not drawn) [Compound 11, 3,8,8,10-tetramethyl-2,4-dioxaspiro[5.5]undecane], the activation at 5 µM came out at 3%.

`CC1CC(C)(C)CC2(COC(C)(C)OC2)C1` (stereo not drawn) [Compound 12, 3,3,8,8,10-pentamethyl-2,4-dioxaspiro[5.5]undecane]: the activation at 5 µM was determined as 1%.

Take `CCC1(C)OCC2(CO1)C[C@H](C)CC[C@H]2C(C)C` (stereo partly drawn) [Compound 13, (7S,1OR)-3-ethyl-7-isopropyl-3,10-dimethyl-2,4-dioxaspiro[5.5]undecane]: the activation at 5 µM was determined as 1%.

As for `CCCC1OCC2(CO1)C[C@H](C)CC[C@H]2C(C)C` (stereo partly drawn) [Compound 14, (7S,1OR)-7-isopropyl-10-methyl-3-propyl-2,4-dioxaspiro[5.5]undecane], the activation at 5 µM was -1%.

Consider `CC(C)C1OCC2(CO1)C[C@H](C)CC[C@H]2C(C)C` (stereo partly drawn) [Compound 15, (7S,1OR)-3,7-diisopropyl-10-methyl-2,4-dioxaspiro[5.5]undecane], for which the activation at 5 µM is -6%.

Consider `CCC(C)C1OCC2(CO1)C[C@H](C)CC[C@H]2C(C)C` (stereo partly drawn) [Compound 16, (7S,1OR)-3-(sec-butyl)-7-isopropyl-10-methyl-2,4-dioxaspiro[5.5]undecane], for which the activation at 5 µM is -1%.

Regarding `COCC1(COC)C[C@H](C)CC[C@H]1C(C)C` [Compound 17, (2S,5R)-2-isopropyl-1,1-bis(methoxymethyl)-5-methylcyclohexane], the activation at 5 µM was 1%.

Turning to `CC(C)[C@@H]1CC[C@@H](C)CC12COC(c1ccccc1)OC2` (stereo partly drawn) [Compound 18, (7S,1OR)-7-isopropyl-10-methyl-3-phenyl-2,4-dioxaspiro[5.5]undecane], the activation at 5 µM was determined as 3%.

On to `CC1(C)CCCC(CO)(CO)C1` [Compound 20, (3,3-dimethylcyclohexane-1,1-diyl)dimethanol], for which the activation at 5 µM stood at 4%.

`CC(C)[C@@H]1CC[C@@H](C)CC1(COC(=O)CCC(=O)O)COC(=O)CCC(=O)O` [Compound 21, 4,4′-((((2S,5R)-2-isopropyl-5-methylcyclohexane-1,1-diyl)bis (methylene))bis(oxy))bis(4-oxobutanoic acid)]: the activation at 5 µM was -2%.

Consider `CC(C)[C@@H]1CC[C@@H](C)CC12COC(C)(c1ccccc1)OC2` (stereo partly drawn) [Compound 22, (7S,1OR)-7-isopropyl-3,10-dimethyl-3-phenyl-2,4-dioxaspiro[5.5]undecane], for which the activation at 5 µM is 13%.

Consider `CC(C)[C@@H]1CC[C@@H](C)CC12COC(c1ccccn1)OC2` (stereo partly drawn) [Compound 23, 2-((7S,10R)-7-isopropyl-10-methyl-2,4-dioxaspiro[5.5]undecan-3-yl) pyridine], for which the activation at 5 µM is 4%.

With `CC(C)[C@@H]1CC[C@@H](C)CC12COC(c1cccs1)OC2` (stereo partly drawn) [Compound 24, (7S,1OR)-7-isopropyl-10-methyl-3-(thiophen-2-yl)-2,4-dioxaspiro[5.5]undecane], the activation at 5 µM is 3%.
